Several values for one entry are separate records, joined by “and”; a condition that tells them apart may be missing. Identical values can stand only once. Entries after “also recorded” stand apart in the source; their conditions may differ.
Assays:
Assay type in all cases: physicochemical
[1] = Quantum yield of photolysis; details: ≧400 nm, 250 μM, extracellular buffer pH 7.4, 22° C.
Procedure: The quantum yield for the caged compound was determined by actinometric methods (Murov, in Dekker, ed., Handbook of Photochemistry, New York, pp. 298-305 (1993), which is hereby incorporated by reference in its entirety). The Oriel (Oriel Instruments, Stratford, Conn.) lamp used for photolysis was equipped with a filter (Schott glass filter GG400; Schott North America, Inc., Elmsford, N.Y.) to eliminate light at wavelengths below 400 nm.
The quantum yield was also determined using the method published by Milburn et al., “Synthesis, Photochemistry, and Biological Activity of a Caged Photolabile Acetylcholine Receptor Ligand,” Biochemistry 28:49-55 (1989), which is hereby incorporated by reference in its entirety. For measuring the quantum yield of DECM-caged glutamate photolysis, 3 mL sample of 4 (Scheme 1) was photolyzed with repetitive light pulses at≧400 nm, and the concentration of 2 (Scheme 1) was determined spectrophotometrically. For measuring the quantum yield of DECM-caged glycine photolysis, 3 mL sample of 4 (Scheme 2) was photolyzed with repetitive light pulses at≧400 nm, and the concentration of 2 (Scheme 2) was determined spectrophotometrically. […]

[2] = Solubility in water or the buffers used; details: physiological conditions
[3] = Laser-flash photolysis (transient spectral measurements); details: for time to release the amino acid on photolysis: aqueous solution, visible region; for time constant of single-exponential absorbance decay at 460 nm: light pulse ≧400 nm, 0.8 mM, HEK buffer pH 7.4, 22° C.
Procedure: […] The energy of the beam was measured using a Molectron (Portland, Oreg.) joule meter. Light of≧400 nm produced by fluorescence from 4.9×10^−4 M Exalite 404 dye (Exciton Inc., Dayton, Ohio) was used to initiate photolysis. The decay of the transient intermediate absorbance was recorded by digitizing the photomultiplier output at rates up to 2 MHz. The transient absorption changes were monitored at a wavelength where there was significant change in the absorption on irradiation of the caged compound (ca. 460 nm). All photolysis rates and quantum yields were measured at room temperature. Nonlinear least-squares fitting of single exponential decays was used to determine the photolysis rate constants.

[4] = UV-vis absorption spectrum of the caged compound; details: for ε390: 390 nm; for ε400: 400 nm
Procedure: The caged compound (1 mM) was rapidly dissolved in the buffer solution (150 mM NaCl, 1 mM CaCl2, 10 mM HEPES; the pH was adjusted to 7.4 using 5 N NaOH), and the solution was immediately transferred to a cuvette (4 mL volume, 10 mm path length) and placed in an absorption spectrometer (OLIS-14C) at 22° C. Whole spectra were recorded between 1 and 240 min after the compound was dissolved (FIGS. 1 and 7).

[5] = Hydrolysis in the dark (thermal stability, UV-vis spectra); details: for hydrolysis at room temperature: HEK buffer pH 7.4, protected from light, 2 h; for hydrolysis on storage: buffer pH 7.4, −20° C. in the dark; for stability in water: pH 7.4 and 22° C. / physiological conditions, in the dark

hydrolysis on storage ([5]; 24 h) | SMILES | quantum yield of photolysis [1] | solubility in water [2] | time to release the amino acid on photolysis [3] | time constant of single-exponential absorbance decay at 460 nm [3] | major absorption band maximum [4] | ε390 [4] | ε400 [4] | hydrolysis at room temperature [5] | stability in water [5] | hydrolysis on storage ([5]; 20 h)
No measurable hydrolysis | CCN(CC)c1ccc2c(COC(=O)CCC(N)C(=O)O)cc(=O)oc2c1 (centres unmarked) [DECM-caged glutamate, (7-N,N-Diethylaminocoumarin-4-yl)-methyl-glutamate-trifluoroacetate] | 0.11±0.008 and 0.11±0.08 | sufficiently soluble in water or the buffers used; also recorded: water soluble | ≤ 3 μs | 3 μs | 390 nm | 13651 M⁻¹ cm⁻¹ | 12232 M⁻¹ cm⁻¹ | very little hydrolysis | stable in the dark | –
– | CCN(CC)c1ccc2c(COC(=O)CN)cc(=O)oc2c1 [DECM-caged glycine, (7-N,N-Diethylaminocoumarin-4-yl)-methyl-glycine-trifluoroacetate] | 0.12±0.009 | water soluble | ≤ 2.6 μs | 2.6 μs | 390 nm | 13869 M⁻¹ cm⁻¹ | 12427 M⁻¹ cm⁻¹ | very little hydrolysis | stable | No measurable hydrolysis

From US8053585B2, “Protecting group for carboxylic acids that can be photolyzed by visible light” (Cornell Research Foundation, Inc., priority 2006, dated 2011)
